Data on nine molecules can be found in patent US4334019A, “Process for producing de(mycinosyloxy)tylosin” (Eli Lilly and Company, priority 1981, dated 1982).

The subject of data set [1] is Streptomyces fradiae E2724.1. The data set is described as follows: Antibiotic sensitivity (sensitivity discs), E2724.1. Further: key: -: resistance (no zones of inhibition); +: sensitivity (zones of inhibition); trace of sensitivity. The class given is cell-based. The conditions noted are these: discs: chloramphenicol 30 μg, erythromycin 15 μg, cephaloridine 30 μg, lincomycin 2 μg, polymyxin B 300 units, streptomycin 10 μg, tetracycline 30 μg, vancomycin 30 μg. The text has this: (§1) ^a Determined by using sensitivity discs padded onto seededagar

Data set [2] deals with Streptomyces fradiae NRRL 11271. Nature of the data set: Antibiotic sensitivity (sensitivity discs), NRRL 11271. Further: key: -: resistance (no zones of inhibition); +: sensitivity (zones of inhibition); trace of sensitivity. The class given is cell-based. The conditions noted are these: discs: chloramphenicol 30 μg, erythromycin 15 μg, cephaloridine 30 μg, lincomycin 2 μg, polymyxin B 300 units, streptomycin 10 μg, tetracycline 30 μg, vancomycin 30 μg.
Description: as §1

Data set [3] relates to gram-positive microorganisms and Mycoplasma species. The data set is described as follows: Growth inhibition of pathogenic organisms (general statement). The class given is cell-based.
A short description of data set [4]: Electrometric titration of DMOT (pKa). The class given is physicochemical. The conditions noted are these: 66% aqueous dimethylformamide. The text has this:
Electrometric titration of DMOT in 66% aqueous dimethylformamide indicates the presence of a titratable group with a pKa value of about 7.3.

The nature of another data set: Solubility. Particulars: free base. The class given is physicochemical.
The test system of data set [5] is Streptococcus pyogenes C203. Nature of the data set: MIC, standard agar-dilution assay, Streptococcus pyogenes C203. The format is cell-based.
The subject of data set [6] is Streptococcus pneumoniae Park I. Nature of the data set: MIC, standard agar-dilution assay, Streptococcus pneumoniae Park I. The format is cell-based.
For data set [7], the system named is Streptococcus sp. (Group D) 282. Nature of the data set: MIC, standard agar-dilution assay, Streptococcus sp. (Group D) 282. The format is cell-based.
In data set [8] the test system is Staphylococcus aureus 3055. The data set is described as follows: MIC, standard agar-dilution assay, Staphylococcus aureus 3055. The class given is cell-based.
In another data set the test system is Pasteurella multocida. The data set is described as follows: MIC, standard agar-dilution assay, Pasteurella multocida. The class given is cell-based.
A further data set deals with Pasteurella hemolytica. The data set is described as follows: MIC, standard agar-dilution assay, Pasteurella hemolytica. The format is cell-based.
In a further data set the test system is Mycoplasma gallisepticum. The data set is described as follows: MIC, standard agar-dilution assay, Mycoplasma gallisepticum. The class given is cell-based. The conditions noted are these: Mycoplasmoides gallisepticum.
The next data set has as its system Mycoplasma hyopneumoniae. Nature of the data set: MIC, standard agar-dilution assay, Mycoplasma hyopneumoniae. Particulars: Mesomycoplasma hyopneumoniae. The class given is cell-based.
The next data set relates to Mycoplasma hyorhinis. The data set is described as follows: MIC, standard agar-dilution assay, Mycoplasma hyorhinis. The class given is cell-based.
For data set [9], the system named is Streptococcus pyogenes C203. The data set is described as follows: In vivo activity against experimental bacterial infection in mice (ED50). The conditions noted are these: C203, sc, subcutaneous, two doses, bacterial challenge 268 X LD50, effective dose to protect 50% of the test animals. As for the experimental part:
The DMOT compounds have shown in vivo antimicrobial activity against experimental bacterial infections. When two doses of test compound were administered to mice in experimental infections, the activity observed was measured as an ED50 value [effective dose in mg/kg to protect 50% of the test animals: see Warren Wick, et al., J. Bacteriol. 81, 233-235 (1961)].
^a Subcutaneous; mg/kg × 2

≈ marks a conversion by molar mass, not a printed value.

A word on the pKa: it is the pH at which an ionisable group is half protonated. Lower therefore signals a stronger acid or weaker base. The MIC is the least concentration at which growth counts as inhibited. Lower therefore signals a more susceptible organism. Usually ED50 stands for the midpoint of the dose-response relation.

Consider `CCC[C@@H]1C[C@@H](C(=O)N[C@@H]([C@H]2O[C@H](SC)[C@H](O)[C@@H](O)[C@H]2O)[C@@H](C)O)N(C)C1` [Lincomycin], for which the “Antibiotic sensitivity, E2724.1” value in data set [1] is listed as “-”. Moreover, the “Antibiotic sensitivity, NRRL 11271” value in data set [2] is “-”.
Regarding `CN[C@H](CC(C)C)C(=O)N[C@H]1C(=O)N[C@@H](CC(N)=O)C(=O)N[C@H]2C(=O)N[C@H]3C(=O)N[C@H](C(=O)N[C@H](C(=O)O)c4cc(O)cc(O)c4-c4cc3ccc4O)[C@H](O)c3ccc(c(Cl)c3)Oc3cc2cc(c3O[C@@H]2O[C@H](CO)[C@@H](O)[C@H](O)[C@H]2O[C@H]2C[C@](C)(N)[C@H](O)[C@H](C)O2)Oc2ccc(cc2Cl)[C@H]1O` [Vancomycin], in [1], the “Antibiotic sensitivity, E2724.1” value was “+”. For the same molecule, the “Antibiotic sensitivity, NRRL 11271” value in [2] is listed as “+”.
Turning to `CCC1OC(=O)CC(O)C(C)C(OC2OC(C)C(OC3CC(C)(O)C(O)C(C)O3)C(N(C)C)C2O)C(CCO)CC(C)C(=O)C=CC(C)=CC1C` (stereo not shown) [dihydro-DMOT, 20-dihydro-23-de(mycinosyloxy)tylosin], the “antibacterial activity (in words)” value in [3] is “especially active against gram-positive microorganisms and Mycoplasma species”.
On to `CCC1OC(=O)CC(O)C(C)C(OC2OC(C)C(OC3CC(C)(O)C(O)C(C)O3)C(N(C)C)C2O)C(CC=O)CC(C)C(=O)C=CC(C)=CC1C` (stereo not shown) [DMOT, 23-de(mycinosyloxy)tylosin], for which, in data set [4], the pKa is around 7.3. For the same molecule, the “solubility in polar organic solvents” value in the data set “Solubility” (most polar organic solvents, such as acetone, methanol, ethanol, dimethylformamide, chloroform and dimethyl sulfoxide) is given as “soluble”. In “Solubility” (water), the solubility in water entry is “sparingly soluble”. For the same molecule, the minimum inhibitory concentration (MIC) was determined as 0.25 µg/mL (≈ 0.344 µM) in [5]; 0.13 µg/mL (≈ 0.179 µM) in [6]; 0.5 µg/mL (≈ 0.689 µM) in data set [7]; 1 µg/mL (≈ 1.38 µM) in [8]; 6.25 µg/mL (≈ 8.61 µM) against Pasteurella multocida; 25 µg/mL (≈ 34.4 µM) with Pasteurella hemolytica. Further, the MIC against Mycoplasma gallisepticum worked out at 0.097 µg/mL (≈ 0.134 µM); against Mycoplasma hyopneumoniae, 0.39 µg/mL (≈ 0.537 µM); against Mycoplasma hyorhinis, 0.78 µg/mL (≈ 1.07 µM). The molecule further gave an ED50 in data set [9] of 6.3 mg/kg. Besides, the “antibacterial activity (in words)” value in data set [3] was “especially active against gram-positive microorganisms and Mycoplasma species”.
As to `CN(C)[C@@H]1C(O)=C(C(N)=O)C(=O)[C@@]2(O)C(O)=C3C(=O)c4c(O)cccc4[C@@](C)(O)[C@H]3C[C@@H]12` [Tetracycline], the “Antibiotic sensitivity, E2724.1” value in data set [1] is reported as “+”. Also, the “Antibiotic sensitivity, NRRL 11271” value in data set [2] is recorded as “+”.
Consider `[H]/N=C(/N)N[C@H]1[C@H](O)[C@@H](O)[C@H](O[C@@H]2O[C@@H](C)[C@](O)(C=O)[C@H]2O[C@@H]2O[C@@H](CO)[C@H](O)[C@@H](O)[C@@H]2NC)[C@@H](N/C(N)=N\[H])[C@@H]1O` [Streptomycin], for which, in [1], the “Antibiotic sensitivity, E2724.1” value was “+”. Moreover, the “Antibiotic sensitivity, NRRL 11271” value in [2] is “+”.
With `O=C(N[C@H](CO)[C@H](O)c1ccc([N+](=O)[O-])cc1)C(Cl)Cl` [Chloramphenicol], the “Antibiotic sensitivity, E2724.1” value in [1] is given as “+”. Besides, in data set [2], the “Antibiotic sensitivity, NRRL 11271” value is recorded as “+”.
For `CC[C@H]1OC(=O)[C@H](C)[C@@H](O[C@H]2C[C@@](C)(OC)[C@@H](O)[C@H](C)O2)[C@H](C)[C@@H](O[C@@H]2O[C@H](C)C[C@H](N(C)C)[C@H]2O)[C@](C)(O)C[C@@H](C)C(=O)[C@H](C)[C@@H](O)[C@]1(C)O` [Erythromycin], the “Antibiotic sensitivity, NRRL 11271” value in data set [2] was “+”.
Turning to `O=C(Cc1cccs1)N[C@@H]1C(=O)N2C(C(=O)[O-])=C(C[n+]3ccccc3)CS[C@H]12` [Cephaloridine], in data set [1], the “Antibiotic sensitivity, E2724.1” value is recorded as “+”. In addition, the “Antibiotic sensitivity, NRRL 11271” value in [2] is on record as “+”.
